According to patent publication US11999718B2, “Pyrazole derivatives” (Aptabio Therapeutics Inc., priority 2021, dated 2024):

Key:
[1] = tested on: HL-60 cells differentiated into neutrophil cells; assay: ROS production induced by PMA in HL-60 cells differentiated into neutrophil cells; type: cell-based; details: Homo sapiens, 0.5 h; differentiated HL-60 cells, compounds 0.5 uM (0.5 mM in the source) for 30 minutes, 200 nM PMA, L-012 luminescence
Source text: In order to confirm the effect of the compounds of Synthetic examples on ROS production from fibroblasts and specific substrate cells, ROS production was induced by stimulation of PMA (phorbol 12-myristate 13-acetate), TGF-β1, palmitate or high concentration-glucose, or the like, in HL-60 cells differentiated into neutrophil cells by DMSO treatment, NHLF (normal human lung fibroblast, Lonza), LX-2 (human hepatic stellate cells, Sigma), ARPE19 (human retinal pigment epithelial cell, ATCC), and KEL-FIB (Keloid fibroblast, ATCC) cells, and under this condition, the inhibitory effect of ROS production of the compounds of Synthetic Examples was observed.
HL-60 cells (human leukemia cells, ATCC) were suspended in a medium containing 1.25% DMSO (RPMI+10% FBS) and cultured under the condition of 5% CO2, 37° C. for 6 days, thereby inducing differentiation into neutrophil cells. […] Then, to each well comprising the cells and drug, 200 nM PMA was treated to induce ROS production, and such ROS production was measured by observing the luminescence level of each well using 100 μM L-012.

HFF-1 cells = assay: Collagen gel contraction induced by TGF-β1 in HFF-1 cells; type: cell-based, human; details: HFF-1 cells in collagen gel, TGF-β1 10 ng/ml, 72 hours, FIG. 7
Source text: In order to confirm the effect of the compounds of Synthetic examples on differentiation of fibroblasts into myofibroblasts, the inhibitory effect of the compounds of Synthetic examples on the phenomenon of contraction of gel induced by interaction of human foreskin fibroblasts (HFF-1, ATCC) and collagen was observed.
The mixed solution of the HFF-1 cells and collagen (bovine type I collagen) prepared at a concentration of 3×10^6 cells/ml was aliquoted in a 24 well plate, respectively, and then cultured under the condition of 5% CO2, 37° C. for 1 hour to induce gel polymerization. Then, after suspending the gel attached on the plate from the plate using a spoon, a medium comprising TGF-β1 and Synthetic example compounds was added to each well. After culturing for 72 hours, the Synthetic example compounds were treated by 10, 20, 30, 40, 60 and 80 μM to measure the size of the gel, and thereby, the degree of contraction of the gel by drug treatment was confirmed.

IL-6 = assay: Expression of IL-6 in pancreatic cancer associated fibroblasts (ELISA); type: cell-based, human; details: P.CAF cells, 48 hours treatment, FIG. 5
Description: (§1) In order to confirm the effect of the compounds of Synthetic examples of the present invention on inflammation reaction in cancer associated fibroblasts, whether the expression of IL6 and IL8 was inhibited by the compounds of Synthetic examples in pancreatic cancer associated fibroblasts (P.CAF) was observed.
(§2) After inoculating 1.5×10^5 cells in a 6 well plate and then culturing in P.CAF complete media for 48 hours, the compounds of Synthetic examples were treated by 10, 20, 30, 40, 60 and 80 μM for 48 hours according to each condition, and then the expression of IL-6 and IL-8 was confirmed by performing ELISA with Quantkine ELISA kit (R&D systems) as follows.
(§3) 100 μl of the culture solution in which the compounds of Synthetic examples were treated for 48 hours was added to the microplate strip for analysis including a 100 μl assay diluent and left at a room temperature for 2 hours and then the contents were removed, and then it was washed with 400 μl wash buffer 4 times. 200 μl of a human IL-6 or IL-8 conjugate was added and left at a room temperature for 2 hours and then the contents were removed, and then it was washed with 400 μl wash buffer 4 times. 200 μl of substrate solution was added and left at a room temperature for 20 minutes and then 50 μl of stop solution was added, and the absorbance at a wavelength of 450 nm was measured within 30 minutes to confirm the expression level of IL-6 and IL-8.

IL-8 = assay: Expression of IL-8 in pancreatic cancer associated fibroblasts (ELISA); type: cell-based, human; details: P.CAF cells, 48 hours treatment, FIG. 6
Description: as §1, §2, §3

| SMILES | inhibition at 0.5 µM [1] | contraction of the gel induced by TGF-β1 (HFF-1 cells) | IL-6 expressed in P.CAF (IL-6) | IL-8 expressed in P.CAF (IL-8) |
| --- | --- | --- | --- | --- |
| COc1cccc(CN(C)C2CCc3nn(-c4ccccn4)c(O)c3C2)c1 (stereo not drawn) [Compound 13, 5-[(3-Methoxybenzyl)methylamino]-2-(pyridin-2-yl)-4,5,6,7-tetrahydro-2H-indazol-3-ol] | > 70% | effectively inhibited | – | – |
| CN(Cc1cc2ccccc2cn1)C1CCc2nn(-c3ccccn3)c(O)c2C1 (stereo not drawn) [Compound 62, 5-[(Isoquinolin-3-ylmethyl)methylamino]-2-(pyridin-2-yl)-4,5,6,7-tetrahydro-2H-indazol-3-ol] | > 70% | effectively inhibited | effectively inhibited | effectively inhibited |
| O=C(C1CC1)N1CCN(C2CCc3nn(-c4ccccn4)c(O)c3C2)CC1 (stereo not drawn) [Compound 38, Cyclopropyl[4-(3-hydroxy-2-(pyridin-2-yl)-4,5,6,7-tetrahydro-2-indazol-5-yl)piperazin-1-yl]methanone] | > 70% | effectively inhibited | effectively inhibited | effectively inhibited |
| CN(Cc1cccc(S(C)(=O)=O)c1)C1CCc2nn(-c3ccccn3)c(O)c2C1 (stereo not drawn) [Compound 23, 5-[Methyl(3-methylsulfonylbenzyl)amino]-2-(pyridin-2-yl)-4,5,6,7-tetrahydro-2H-indazol-3-ol] | 50 to 70% | effectively inhibited | effectively inhibited | effectively inhibited |
| CN(C1CCc2nn(-c3ccccn3)c(O)c2C1)C1CCCc2cccnc21 (stereo not drawn) [Compound 33, 5-[Methyl(5,6,7,8-tetrahydroquinolin-8-yl)amino]-2-(pyridin-2-yl)-4,5,6,7-tetrahydro-2H-indazol-3-ol] | 50 to 70% | effectively inhibited | effectively inhibited | effectively inhibited |
| CN(Cc1ccc(F)cc1F)C1CCc2nn(-c3ccccn3)c(O)c2C1 (stereo not drawn) [Compound 5, 5-[(2,4-Difluorobenzyl)methylamino]-2-(pyridin-2-yl)-4,5,6,7-tetrahydro-2H-indazol-3-ol] | > 70% | effectively inhibited | effectively inhibited | effectively inhibited |
| CN1CCN(C2CCc3nn(-c4ccc(F)cc4)c(O)c3C2)CC1 (stereo not drawn) [Compound 102, 2-(4-Fluorophenyl)-5-(4-methylpiperazin-1-yl)-4,5,6,7-tetrahydro-2H-indazol-3-ol] | > 70% | – | – | – |
| Oc1c2c(nn1-c1ccccn1)CCC(N1CCCCC1)C2 (stereo not drawn) [Compound 14, 5-Piperidin-1-yl-2-(pyridin-2-yl)-4,5,6,7-tetrahydro-2H-indazol-3-ol] | 50 to 70% | effectively inhibited | – | – |
| CN(C)c1ccccc1CN(C)C1CCc2nn(-c3ccccn3)c(O)c2C1 (stereo not drawn) [Compound 71, 5-[(2-Dimethylamino)benzylmethylamino]-2-(pyridin-2-yl)-4,5,6,7-tetrahydro-2H-indazol-3-ol] | 50 to 70% | – | – | – |
| Oc1c2c(nn1-c1ccccn1)CCC(NCCc1ccccc1)C2 (stereo not drawn) [Compound 93, 5-(Penethylamino)-2-(pyridin-2-yl)-4,5,6,7-tetrahydro-2H-indazol-3-ol] | 30 to 50% | – | – | – |
| CN1CCN(C2CCc3nn(-c4ccc(C#N)cc4)c(O)c3C2)CC1 (stereo not drawn) [Compound 103, 4-(3-Hydroxy-5-(4-methylpiperazin-1-yl)-4,5,6,7-tetrahydro-2H-indazol-2-yl)benzonitrile] | > 70% | – | – | – |
| Oc1c2c(nn1-c1ccccn1)CCC(N1CCN(CC3CCCCC3)CC1)C2 (stereo not drawn) [Compound 106, 5-(4-(Cyclohexylmethyl)piperazin-1-yl)-2-(pyridin-2-yl)-4,5,6,7-tetrahydro-2H-indazol-3-ol] | > 70% | – | – | – |
| CN(Cc1cccc(C#N)c1)C1CCc2nn(-c3ccccn3)c(O)c2C1 (stereo not drawn) [Compound 25, 3-{[(3-Hydroxy-2-(pyridin-2-yl)-4,5,6,7-tetrahydro-2H-indazol-5-yl)methylamino]methyl}benzonitrile] | 30 to 50% | – | – | – |
| CC#CC(=O)N1CCN(C2CCc3nn(-c4ccccn4)c(O)c3C2)CC1 (stereo not drawn) [Compound 89] | > 70% | – | – | – |
| CN1CCN(C2CCc3nn(-c4ccc(Cl)cc4)c(O)c3C2)CC1 (stereo not drawn) [Compound 94, 2-(4-Chlorophenyl)-5-(4-methylpiperazin-1-yl)-4,5,6,7-tetrahydro-2H-indazol-3-ol] | > 70% | – | – | – |
| CCN(Cc1ccccc1)C1CCc2nn(-c3ccccn3)c(O)c2C1 (stereo not drawn) [Compound 20, 5-(Benzylethylamino)-2-(pyridin-2-yl)-4,5,6,7-tetrahydro-2H-indazol-3-ol] | 30 to 50% | – | – | – |
| Oc1c2c(nn1-c1ccccn1)CCC(N1CCN(Cc3ccccn3)CC1)C2 (stereo not drawn) [Compound 87, 2-(Pyridin-2-yl)-5-(4-(pyridin-2-ylmethyl)piperazin-1-yl)-4,5,6,7-tetrahydro-2H-indazol-3-ol] | 50 to 70% | – | – | – |
| Cc1cccc(CN(C)C2CCc3nn(-c4ccccn4)c(O)c3C2)c1 (stereo not drawn) [Compound 9, 5-[Methyl-(3-methylbenzyl)amino]-2-(pyridin-2-yl)-4,5,6,7-tetrahydro-2H-indazol-3-ol] | 50 to 70% | – | – | – |
| CN1CCN(c2cc(CN(C)C3CCc4nn(-c5ccccn5)c(O)c4C3)ncn2)CC1 (stereo not drawn) [Compound 34, 5-{methyl-[6-(4-methyl-piperazin-1-yl)-pyrimidin-4-ylmethyl]-amino}-2-pyridin-2-yl-4,5,6,7-tetrahydro-2H-indazol-3-ol] | 30 to 50% | – | – | – |
| CN(Cc1ccccc1C(F)(F)F)C1CCc2nn(-c3ccccn3)c(O)c2C1 (stereo not drawn) [Compound 11, 5-[Methyl-(2-trifluoromethylbenzyl)-amino]-2-pyridin-2-yl-4,5,6,7-tetrahydro-2H-indazol-3-ol] | < 30% | – | – | – |
| Cc1ccc(CN(C)C2CCc3nn(-c4ccccn4)c(O)c3C2)cc1 (stereo not drawn) [Compound 24, 5-[Methyl-(4-methylbenzyl)amino]-2-(pyridin-2-yl)-4,5,6,7-tetrahydro-2H-indazol-3-ol] | 30 to 50% | – | – | – |
| CN(C)C/C=C/C(=O)N(C)C1CCc2nn(-c3ccccn3)c(O)c2C1 (stereo not drawn) [Compound 99, (E)-4-(dimethylamino)-N-(3-hydroxy-2-(pyridin-2-yl)-4,5,6,7-tetrahydro-2H-indazol-5-yl)-N-methylbut-2-enamide] | 50 to 70% | – | – | – |
| CN(Cc1ccc2ncccc2c1)C1CCc2nn(-c3ccccn3)c(O)c2C1 (stereo not drawn) [Compound 63, 5-[Methyl(quinolin-6-ylmethyl)amino]-2-(pyridin-2-yl)-4,5,6,7-tetrahydro-2H-indazol-3-ol] | > 70% | effectively inhibited | effectively inhibited | effectively inhibited |
| CN(Cc1ccc(C#N)cc1)C1CCc2nn(-c3ccccn3)c(O)c2C1 (stereo not drawn) [Compound 3, 4-{[(3-Hydroxy-2-(pyridin-2-yl)-4,5,6,7-tetrahydro-2H-indazol-5-yl)methylamino]methyl}benzonitrile] | > 70% | – | – | – |
| COc1ccccc1CN(C)C1CCc2nn(-c3ccccn3)c(O)c2C1 (stereo not drawn) [Compound 26, 5-[(2-Methoxybenzyl)-methylamino]-2-(pyridin-2-yl)-4,5,6,7-tetrahydro-2H-indazol-3-ol] | < 30% | – | – | – |
